Experimental data from paper PMC10088252.

Details: 400 mg BID (n=4)

With O=C(Nc1ccc(Oc2ccnc3c2CCN3)c(F)c1)c1c[nH]cc(-c2ccc(F)cc2)c1=O the “TRAE Dyskinesia, any grade” value was 0 n (%), the “TRAE Dyskinesia, grade 3-4” value was 0 n (%) and the “TRAE Dysphonia, any grade” value was 0 n (%). For the same compound, the “TRAE Dysphonia, grade 3-4” value was 0 n (%), the “TRAE Dyspnoea, any grade” value was 0 n (%) and the “TRAE Dyspnoea, grade 3-4” value was 0 n (%). For the same compound, the “TRAE Electrocardiogram QT prolonged, any grade” value was 0 n (%), the “TRAE Electrocardiogram QT prolonged, grade 3-4” value was 0 n (%) and the “TRAE Elevated ALT, any grade” value was 3 (75.0) n (%). The “TRAE Elevated ALT, grade 3-4” value was 0 n (%), the “TRAE Elevated AST, any grade” value was 3 (75.0) n (%) and the “TRAE Elevated AST, grade 3-4” value was 0 n (%). For the same compound, the “TRAE Elevated D dimer, any grade” value was 0 n (%), the “TRAE Elevated D dimer, grade 3-4” value was 0 n (%) and the “TRAE Elevated GGT, any grade” value was 1 (25.0) n (%). For the same compound, the “TRAE Elevated GGT, grade 3-4” value was 0 n (%), the “TRAE Elevated LDH, any grade” value was 1 (25.0) n (%) and the “TRAE Elevated LDH, grade 3-4” value was 0 n (%). The “TRAE Elevated alpha-HBDH, any grade” value was 1 (25.0) n (%), the “TRAE Elevated alpha-HBDH, grade 3-4” value was 0 n (%) and the “TRAE Elevated bilirubin, any grade” value was 1 (25.0) n (%). The “TRAE Elevated bilirubin, grade 3-4” value was 0 n (%), the “TRAE Elevated blood creatinine, any grade” value was 1 (25.0) n (%) and the “TRAE Elevated blood creatinine, grade 3-4” value was 0 n (%). For the same compound, the “TRAE Elevated creatine phosphokinase, any grade” value was 2 (50.0) n (%), the “TRAE Elevated creatine phosphokinase, grade 3-4” value was 0 n (%) and the “TRAE Elevated serum urea, any grade” value was 0 n (%). The “TRAE Elevated serum urea, grade 3-4” value was 0 n (%), the “TRAE Elevated troponin, any grade” value was 0 n (%) and the “TRAE Elevated troponin, grade 3-4” value was 0 n (%). The “TRAE Genital rash, any grade” value was 0 n (%), the “TRAE Genital rash, grade 3-4” value was 0 n (%) and the “TRAE Haematuria, any grade” value was 0 n (%). For the same compound, the “TRAE Haematuria, grade 3-4” value was 0 n (%), the “TRAE Headache, any grade” value was 0 n (%) and the “TRAE Headache, grade 3-4” value was 0 n (%). For the same compound, the “TRAE Hyperhidrosis, any grade” value was 0 n (%), the “TRAE Hyperhidrosis, grade 3-4” value was 0 n (%) and the “TRAE Hyperlipidaemia, any grade” value was 1 (25.0) n (%). The “TRAE Hyperlipidaemia, grade 3-4” value was 0 n (%), the “TRAE Hypertension, any grade” value was 1 (25.0) n (%) and the “TRAE Hypertension, grade 3-4” value was 0 n (%). For the same compound, the “TRAE Hypoaesthesia oral, any grade” value was 0 n (%), the “TRAE Hypoaesthesia oral, grade 3-4” value was 0 n (%) and the “TRAE Hypocalcaemia, any grade” value was 0 n (%). The “TRAE Hypocalcaemia, grade 3-4” value was 0 n (%), the “TRAE Hypotension, any grade” value was 0 n (%) and the “TRAE Hypotension, grade 3-4” value was 0 n (%). The “TRAE Insomnia, any grade” value was 0 n (%), the “TRAE Insomnia, grade 3-4” value was 0 n (%) and the “TRAE Leukopenia, any grade” value was 1 (25.0) n (%). For the same compound, the “TRAE Leukopenia, grade 3-4” value was 0 n (%), the “TRAE Nausea, any grade” value was 0 n (%) and the “TRAE Nausea, grade 3-4” value was 0 n (%). For the same compound, the “TRAE Neuritis, any grade” value was 0 n (%), the “TRAE Neuritis, grade 3-4” value was 0 n (%) and the “TRAE Occult blood, any grade” value was 0 n (%). For the same compound, the “TRAE Occult blood, grade 3-4” value was 0 n (%), the “TRAE Oedema peripheral, any grade” value was 0 n (%) and the “TRAE Oedema peripheral, grade 3-4” value was 0 n (%). For the same compound, the “TRAE Onycholysis, any grade” value was 0 n (%), the “TRAE Onycholysis, grade 3-4” value was 0 n (%) and the “TRAE Oropharyngeal pain, any grade” value was 0 n (%). For the same compound, the “TRAE Oropharyngeal pain, grade 3-4” value was 0 n (%), the “TRAE PPE, any grade” value was 4 (100.0) n (%) and the “TRAE PPE, grade 3-4” value was 3 (75.0) n (%). The “TRAE Paraesthesia, any grade” value was 0 n (%), the “TRAE Paraesthesia, grade 3-4” value was 0 n (%) and the “TRAE Proteinuria, any grade” value was 0 n (%). The “TRAE Proteinuria, grade 3-4” value was 0 n (%), the “TRAE Pruritus, any grade” value was 0 n (%) and the “TRAE Pruritus, grade 3-4” value was 0 n (%). The “TRAE Rash maculo-papular, any grade” value was 0 n (%), the “TRAE Rash maculo-papular, grade 3-4” value was 0 n (%) and the “TRAE Sinus tachycardia, any grade” value was 0 n (%). For the same compound, the “TRAE Sinus tachycardia, grade 3-4” value was 0 n (%), the “TRAE Skin fissures, any grade” value was 0 n (%) and the “TRAE Skin fissures, grade 3-4” value was 0 n (%). The “TRAE Supraventricular extrasystoles, any grade” value was 0 n (%), the “TRAE Supraventricular extrasystoles, grade 3-4” value was 0 n (%) and the “TRAE Thrombocytopenia, any grade” value was 2 (50.0) n (%). For the same compound, the “TRAE Thrombocytopenia, grade 3-4” value was 1 (25.0) n (%), the “TRAE Upper respiratory tract infection, any grade” value was 0 n (%) and the “TRAE Upper respiratory tract infection, grade 3-4” value was 0 n (%).
